Data reported in PubChem BioAssay AID328 (DTP/NCI, 2004).
Values joined by “and” are separate entries in the source; they are usually repeats but may differ in a detail not shown here. Equal entries are not always repeated. Toxic doses and inconclusive results are not listed.

Test system: BDF1 mice, P388 leukemia ip, median survival T/C
Experiment: NCI In Vivo Anticancer Drug Screen. Data for tumor model P388 Leukemia (intraperitoneal) in B6D2F1 (BDF1) mice
Details: endpoint: median survival time, higher = longer survival
Summary of the method: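 Survival ratio, drug arm over vehicle arm, in mice with a transplanted tumour.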

[1] = dose: 25.0 mg/kg/injection, schedule: Q04DX003 (ip), vehicle: Klucel (hydroxypropylcellulose) (HPC)
[2] = dose: 50.0 mg/kg/injection, schedule: Q04DX003 (ip), vehicle: Klucel (hydroxypropylcellulose) (HPC)
[3] = dose: 100.0 mg/kg/injection, schedule: Q04DX003 (ip), vehicle: Klucel (hydroxypropylcellulose) (HPC)
[4] = dose: 100.0 mg/kg/injection, schedule: Q04DX003 (ip), vehicle: saline with Tween-80
[5] = dose: 200.0 mg/kg/injection, schedule: Q04DX003 (ip), vehicle: Klucel (hydroxypropylcellulose) (HPC)
[6] = dose: 400.0 mg/kg/injection, schedule: Q04DX003 (ip), vehicle: Klucel (hydroxypropylcellulose) (HPC)
[7] = dose: 50.0 mg/kg/injection, schedule: Q01DX009 (ip), vehicle: saline with Tween-80
[8] = dose: 100.0 mg/kg/injection, schedule: Q01DX009 (ip), vehicle: saline with Tween-80
[9] = dose: 200.0 mg/kg/injection, schedule: Q04DX003 (ip), vehicle: saline with Tween-80
[10] = dose: 25.0 mg/kg/injection, schedule: Q01DX009 (ip), vehicle: saline with Tween-80
[11] = dose: 200.0 mg/kg/injection, schedule: Q01DX009 (ip), vehicle: saline with Tween-80

## O=C1N(Cl)C(=O)C(c2ccc(Cl)cc2)(c2ccc(Cl)cc2)N1Cl
dose: 22.0 mg/kg/injection, schedule: Q04DX003 (ip), vehicle: saline with Tween-80
  T/C: 115 % of control
dose: 22.0 mg/kg/injection, schedule: Q04DX003 (ip), vehicle: saline
  T/C: 91 % of control
dose: 25.0 mg/kg/injection, schedule: Q02DX005 (ip), vehicle: Klucel (hydroxypropylcellulose) (HPC)
  T/C: 110 % of control
[1]
  T/C: 105 % of control
dose: 25.0 mg/kg/injection, schedule: Q04DX003 (ip), vehicle: saline with Tween-80
  T/C: 104 % of control
dose: 30.0 mg/kg/injection, schedule: Q04DX003 (ip), vehicle: Klucel (hydroxypropylcellulose) (HPC)
  T/C: 100 % of control
dose: 33.0 mg/kg/injection, schedule: Q04DX003 (ip), vehicle: saline with Tween-80
  T/C: 123 % of control
dose: 33.0 mg/kg/injection, schedule: Q04DX003 (ip), vehicle: saline
  T/C: 116 % of control
dose: 38.5 mg/kg/injection, schedule: Q04DX003 (ip), vehicle: saline with Tween-80
  T/C: 120 % of control
dose: 50.0 mg/kg/injection, schedule: Q02DX005 (ip), vehicle: Klucel (hydroxypropylcellulose) (HPC)
  T/C: 124 % of control
[2]
  T/C: 96 % of control
dose: 50.0 mg/kg/injection, schedule: Q04DX003 (ip), vehicle: saline with Tween-80
  T/C: 153 % of control
dose: 50.0 mg/kg/injection, schedule: Q04DX003 (ip), vehicle: saline
  T/C: 120 % of control
dose: 60.0 mg/kg/injection, schedule: Q04DX003 (ip), vehicle: Klucel (hydroxypropylcellulose) (HPC)
  T/C: 111 % of control
dose: 75.0 mg/kg/injection, schedule: Q04DX003 (ip), vehicle: saline with Tween-80
  T/C: 150 % of control
dose: 75.0 mg/kg/injection, schedule: Q04DX003 (ip), vehicle: saline
  T/C: 120 % of control
dose: 100.0 mg/kg/injection, schedule: Q02DX005 (ip), vehicle: Klucel (hydroxypropylcellulose) (HPC)
  T/C: 151 % of control
[3]
  T/C: 96 % of control
dose: 100.0 mg/kg/injection, schedule: Q04DX003 (ip), vehicle: saline sonified
  T/C: 160 % of control
[4]
  T/C: 150 % of control and 154 % of control
dose: 132.0 mg/kg/injection, schedule: Q02DX005 (ip), vehicle: Klucel (hydroxypropylcellulose) (HPC)
  T/C: 150 % of control
dose: 132.0 mg/kg/injection, schedule: Q04DX003 (ip), vehicle: saline with Tween-80
  T/C: 112 % of control and 117 % of control
dose: 200.0 mg/kg/injection, schedule: Q01DX009 (ip), vehicle: Klucel (hydroxypropylcellulose) (HPC)
  T/C: 156 % of control
dose: 200.0 mg/kg/injection, schedule: Q02DX005 (ip), vehicle: Klucel (hydroxypropylcellulose) (HPC)
  T/C: 155 % of control and 171 % of control
[5]
  T/C: 98 % of control
dose: 200.0 mg/kg/injection, schedule: Q04DX003 (ip), vehicle: saline sonified
  T/C: 180 % of control
dose: 300.0 mg/kg/injection, schedule: Q01DX009 (ip), vehicle: Klucel (hydroxypropylcellulose) (HPC)
  T/C: 95 % of control
dose: 300.0 mg/kg/injection, schedule: Q02DX005 (ip), vehicle: Klucel (hydroxypropylcellulose) (HPC)
  T/C: 152 % of control
dose: 300.0 mg/kg/injection, schedule: Q04DX003 (ip), vehicle: Klucel (hydroxypropylcellulose) (HPC)
  T/C: 114 % of control
dose: 380.0 mg/kg/injection, schedule: Q04DX003 (ip), vehicle: Klucel (hydroxypropylcellulose) (HPC)
  T/C: 100 % of control
dose: 400.0 mg/kg/injection, schedule: Q04DX003 (ip), vehicle: saline sonified
  T/C: 190 % of control

## C[C@]1(O)CC[C@H]2[C@@H]3CCC4=CC(=O)CC[C@]4(C)[C@@]3(F)C(=O)C[C@@]21C
dose: 12.5 mg/kg/injection, schedule: Q01DX009 (ip), vehicle: Klucel (hydroxypropylcellulose) (HPC)
  T/C: 104 % of control
dose: 25.0 mg/kg/injection, schedule: Q01DX009 (ip), vehicle: Klucel (hydroxypropylcellulose) (HPC)
  T/C: 109 % of control
dose: 50.0 mg/kg/injection, schedule: Q01DX009 (ip), vehicle: Klucel (hydroxypropylcellulose) (HPC)
  T/C: 90 % of control
[3]
  T/C: 100 % of control
[5]
  T/C: 100 % of control
[6]
  T/C: 104 % of control

## Cc1ncc([N+](=O)[O-])n1CCO
[2]
  T/C: 100 % of control
[3]
  T/C: 100 % of control
[5]
  T/C: 95 % of control
[6]
  T/C: 91 % of control

## CCCCCC(CN(C)C)C(=O)/C=C/c1cccc(O)c1 (configuration not stated)
[7]
  T/C: 106 % of control
[8]
  T/C: 98 % of control

## C(=N\Nc1nnn(Cc2ccccc2)n1)/c1ccccc1
[4]
  T/C: 90 % of control
[9]
  T/C: 95 % of control
dose: 400.0 mg/kg/injection, schedule: Q04DX003 (ip), vehicle: saline with Tween-80
  T/C: 95 % of control

## C[n+]1c(/C=C/c2ccc(N(CCC(=O)O)CCC(=O)O)cc2)ccc2cc(Cl)ccc21
dose: 12.5 mg/kg/injection, schedule: Q01DX001 (ip), vehicle: saline with Tween-80
  T/C: 109 % of control
dose: 25.0 mg/kg/injection, schedule: Q01DX001 (ip), vehicle: saline with Tween-80
  T/C: 88 % of control

## CCC1(O)CC2CN(CCc3c([nH]c4ccccc34)C(C(=O)OC)(c3cc4c(cc3OC)N(C)C3C(O)(C(=O)NCCSSCCNC(=O)C5(O)C(O)C6(CC)C=CCN7CCC8(c9cc(C%10(C(=O)OC)CC%11CN(CCc%12c%10[nH]c%10ccccc%12%10)CC(O)(CC)C%11)c(OC)cc9N(C)C58)C76)C(O)C5(CC)C=CCN6CCC43C65)C2)C1 (configuration not stated)
dose: 250.0 micrograms/kg/injection, schedule: Q04DX003 (ip), vehicle: saline
  T/C: 179 % of control
dose: 432.0 micrograms/kg/injection, schedule: Q04DX003 (ip), vehicle: saline
  T/C: 162 % of control
dose: 500.0 micrograms/kg/injection, schedule: Q04DX003 (ip), vehicle: saline
  T/C: 185 % of control
dose: 648.0 micrograms/kg/injection, schedule: Q04DX003 (ip), vehicle: saline
  T/C: 268 % of control
dose: 720.0 micrograms/kg/injection, schedule: Q04DX003 (ip), vehicle: saline
  T/C: 164 % of control
dose: 1000.0 micrograms/kg/injection, schedule: Q04DX003 (ip), vehicle: saline
  T/C: 224 % of control
dose: 1080.0 micrograms/kg/injection, schedule: Q04DX003 (ip), vehicle: saline
  T/C: 244 % of control
dose: 1200.0 micrograms/kg/injection, schedule: Q04DX003 (ip), vehicle: saline
  T/C: 171 % of control
dose: 1800.0 micrograms/kg/injection, schedule: Q04DX003 (ip), vehicle: saline
  T/C: 155 % of control
dose: 2000.0 micrograms/kg/injection, schedule: Q04DX003 (ip), vehicle: saline
  T/C: 221 % of control

## Cc1ccc(C(SCC(N)C(=O)O)(c2ccc(C)cc2)c2ccc(C)cc2)cc1 (configuration not stated)
dose: 65.0 mg/kg/injection, schedule: Q04DX003 (ip), vehicle: Klucel (hydroxypropylcellulose) (HPC)
  T/C: 159 % of control
[3]
  T/C: 175 % of control
[5]
  T/C: 185 % of control
dose: 264.0 mg/kg/injection, schedule: Q04DX003 (ip), vehicle: Klucel (hydroxypropylcellulose) (HPC)
  T/C: 230 % of control and 150 % of control
[6]
  T/C: 177 % of control and 190 % of control (2×)

## CC1OC(OC2C(O)CC(OC3C(O)CC(OC4CCC5(C)C(CCC6C5CCC5(C)C(C7=CC(=O)OC7)CCC65O)C4)OC3C)OC2C)CC(O)C1O (configuration not stated)
dose: 0.63 mg/kg/injection, schedule: Q01DX010 (ip), vehicle: saline
  T/C: 113 % of control
dose: 1.25 mg/kg/injection, schedule: Q01DX010 (ip), vehicle: saline
  T/C: 100 % of control
dose: 2.5 mg/kg/injection, schedule: Q01DX010 (ip), vehicle: saline
  T/C: 118 % of control
dose: 5.0 mg/kg/injection, schedule: Q01DX010 (ip), vehicle: saline
  T/C: 100 % of control

## O=[N+]([O-])c1cc2c(c([N+](=O)[O-])c1)OCOC2
[10]
  T/C: 95 % of control
[7]
  T/C: 95 % of control
[8]
  T/C: 86 % of control
[4]
  T/C: 100 % of control
[9]
  T/C: 95 % of control

## Nc1ncnc2c1nnn2C1CC(CO)C(O)C1O (configuration not stated)
dose: 67.0 mg/kg/injection, schedule: Q01DX009 (ip), vehicle: saline with Tween-80
  T/C: 163 % of control
dose: 75.0 mg/kg/injection, schedule: Q01DX009 (ip), vehicle: saline with Tween-80
  T/C: 153 % of control
[8]
  T/C: 168 % of control

## COc1ccc(CNCC(=O)OCc2ccccc2)cc1
[10]
  T/C: 92 % of control
[7]
  T/C: 101 % of control
[8]
  T/C: 88 % of control
[4]
  T/C: 111 % of control
[11]
  T/C: 102 % of control
[9]
  T/C: 109 % of control

## CCCCCCC(O)CCCCCCCCCCC(=O)O (configuration not stated)
[8]
  T/C: 95 % of control
[11]
  T/C: 95 % of control
dose: 400.0 mg/kg/injection, schedule: Q01DX009 (ip), vehicle: saline with Tween-80
  T/C: 100 % of control

## Cn1c2nc(=O)n(-c3ccccc3)c(=O)c-2nc2ccccc21
dose: 12.5 mg/kg/injection, schedule: Q01DX009 (ip), vehicle: saline with Tween-80
  T/C: 95 % of control
[10]
  T/C: 104 % of control
[7]
  T/C: 91 % of control and 95 % of control

## COC(=O)c1ccc(-c2ccccc2)cc1
[1]
  T/C: 98 % of control
[2]
  T/C: 95 % of control
[3]
  T/C: 94 % of control
[5]
  T/C: 101 % of control
[6]
  T/C: 100 % of control
